The values that follow come from publication PMC4729137, “Functional analysis of androgen receptor mutations that confer anti-androgen resistance identified in circulating cell-free DNA from prostate cancer patients” (Genome Biology, 2016).

The target of experiment [1] is T1, T878A-AR (Homo sapiens, UniProt P10275, T878A).
T1 sequence (P10275 1-920 T878A): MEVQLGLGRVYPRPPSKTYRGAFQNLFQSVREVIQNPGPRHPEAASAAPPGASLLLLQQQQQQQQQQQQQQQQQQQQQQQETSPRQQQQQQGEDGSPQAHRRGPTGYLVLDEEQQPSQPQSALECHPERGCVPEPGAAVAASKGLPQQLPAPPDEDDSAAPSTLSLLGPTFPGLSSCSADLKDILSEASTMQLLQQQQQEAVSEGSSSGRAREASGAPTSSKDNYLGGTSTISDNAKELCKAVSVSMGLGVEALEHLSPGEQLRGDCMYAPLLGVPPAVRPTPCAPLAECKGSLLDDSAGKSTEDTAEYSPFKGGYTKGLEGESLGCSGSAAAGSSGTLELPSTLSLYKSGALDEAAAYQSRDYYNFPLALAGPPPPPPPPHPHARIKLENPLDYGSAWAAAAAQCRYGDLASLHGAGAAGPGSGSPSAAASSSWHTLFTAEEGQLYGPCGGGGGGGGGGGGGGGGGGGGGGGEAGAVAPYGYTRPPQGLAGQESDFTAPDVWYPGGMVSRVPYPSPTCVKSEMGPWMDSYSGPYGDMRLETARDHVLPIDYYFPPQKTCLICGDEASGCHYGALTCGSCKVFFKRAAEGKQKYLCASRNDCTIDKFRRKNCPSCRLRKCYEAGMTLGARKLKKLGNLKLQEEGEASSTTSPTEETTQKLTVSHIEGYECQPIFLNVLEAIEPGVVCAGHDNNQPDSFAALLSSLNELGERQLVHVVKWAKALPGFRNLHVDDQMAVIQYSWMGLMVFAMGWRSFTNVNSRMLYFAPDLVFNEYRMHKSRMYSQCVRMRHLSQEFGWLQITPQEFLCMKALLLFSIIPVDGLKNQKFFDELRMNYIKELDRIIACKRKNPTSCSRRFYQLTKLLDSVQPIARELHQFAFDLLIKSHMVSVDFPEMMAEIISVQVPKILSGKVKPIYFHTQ
The class given is cell-based. On the set-up: Full-length human AR (WT-AR) was encoded on a pcDNA3.1 expression plasmid; expressed in transfected cells; host or cells: PC3 cells. The note with it: AR mutant T878A; transfected PC3 cells; 0.1 nM R1881; drug 0 to 50 μM. From the text: Full-length human AR (WT-AR) was encoded on a pcDNA3.1 expression plasmid (Life technologies). The LBD point mutations (single and multiple) were generated using the QuikChange II Site-Directed Mutagenesis Kit (Agilent Technologies) as per manufacturer’s instructions using WT-AR as the template. The mutagenic oligonucleotide primers were designed individually with the desired mutation in the middle of the primer with approximately 10 to 15 bases of correct sequence on both sides.
PC3 cells were seeded and transfected as described above. […] A non-stimulated/no R1881 control was used. After 24 h, cells were lysed and AR-dependent luciferase activity was quantified. Each concentration was assayed in quadruplicate n = 4, with a biological replicate of n = 3. Results were averaged and normalized by expressing them as a percentage of WT AR activity.

The next experiment has as its target T2, M896T-AR (Homo sapiens, UniProt P10275, M896T).
T2 sequence (P10275 1-920 M896T): T1 sequence (P10275 1-920 T878A) with A878T, M896T
The experiment can be described thus: cell-based.

For experiment [2], the target named is T1, T878A-AR. The experiment can be described thus: cell-based.

SMILES strings stand for the structures. Positions count from the first letter of the chain named.

As to `CC(C)(O)C(=O)Nc1ccc([N+](=O)[O-])c(C(F)(F)F)c1` [Hydroxyflutamide, hydroxyflutamide], at T878A-AR [1], the “Agonist response to treatment” value is “Partial”.
For `C[C@]12CCC(=O)C=C1CC[C@@H]1[C@@H]2[C@@H](O)C[C@@]2(C)[C@H]1CC[C@]2(O)C(=O)CO` [hydrocortisone], the EC50 at M896T-AR and at T878A-AR [2] was over 0.5 µM throughout.

One may read the EC50 as the concentration at which the effect is half-maximal.
